Data set [1] deals with rat model of cerebral ischemia (middle cerebral artery occlusion, MCAO). As to the kind of experiment: MCAO rat cerebral ischemia model, TTC staining, cerebral infarct volume (Example 9). It counts as in vivo, SD rats. The note with it: for Cerebral infarction volume (TTC quantification), mean value / Cerebral infarction volume (TTC quantification): 3 mg/kg tail vein 1-2 h after suturation, read 22-24 h; for Cerebral infarction volume (TTC quantification), mean value: mean of 6 rats. The procedure:
(§1) In order to determine the application of the synthetic peptides provided by the present invention in neurological diseases, the present invention uses SD rats as experimental objects, and performs middle cerebral artery occlusion method (MCAO) to prepare rat model of cerebral ischemia. These rats were injected drugs intravenously 1-2 hours after ischemia, and a behavioral observation and scoring was conducted for each animal after 22-24 hours. After the behavioral observation, the experimental rats were euthanized and their brains were removed, cut to sections and stained with TTC for quantitative analysis, and the cerebral infarct volume % was calculated.
(§2) The experimental SD rat was weighed and anesthetized with chloral hydrate. After anesthesia, the limbs of the rat were fixed, and the rat was placed in a supine position, connected to the small-animal monitor, and monitored for important physiological parameters such as body temperature, blood pressure and heart rate, etc. The rat's neck was shaved and disinfected with 75% alcohol cotton ball. A middle incision of about 2 cm length was then made on the neck of the experimental rat, and the submandibular gland of the rat was bluntly separated while avoiding damage to the gland. Then, the left common carotid artery (CCA) of the experimental rat was bluntly separated, and the internal carotid artery (ICA) and external carotid artery (ECA) were carefully separated upward along the CCA. Any damage to vagus nerves was avoided during the separation. The CCA and ICA were clamped respectively with two artery clamps, and the distal end of the ECA was cut off and a silicone suture emboli was inserted into the ECA “port” to the ICA artery clamp, then the artery clamp was quickly loosened and the tip of the suture emboli was put in through the artery clamp quickly before clamping the ICA again. This step was repeated and the suture emboli was put in further until the black mark of the suture emboli reached the bifurcation of the ECA and ICA, and the tip of the suture emboli blocked the middle cerebral artery and then the ECA “port” and the suture emboli was tied tightly using a thread in order to prevent the “escape” of suture emboli or bleeding after the rat waked up. The artery clamps on the CCA and ICA were then loosed and removed to restore the tissue to its original position, and an appropriate amount of penicillin was applied to prevent wound infection. A medical suture needle with thread was used to suture, and the wound was disinfected using povidone-iodine again after the suturation. The experimental rats were monitored with the small-animal monitor to evaluate if their physiological parameters were normal, and the rats were placed on a small-animal electric blanket to keep their body temperature until they waked up, and placed in animal cages.
(§3) The drug to be tested was prepared as 3 mg/mL solution. The drug was dosed via tail vein 1-2 h after the suturation.
(§4) During the drug administration, the rat was fastened with a fastening device, and the drug to be tested was injected into the tail vein of the rat at 3 mg/kg using 1 mL syringe, the drug was injected slowly to reduce the cardiopulmonary load of the experimental rat.
(§5) The animals were divided into different test groups, with 6 rats for each group.
(§6) Drug groups S1 (NA1), S8 (beta-Ala-His-Gly) and S9 (Gly-beta-Ala-His): administered via tail vein after the suturation;
After behavioral observations, experimental rats were euthanized and their brains were removed. The brain tissue was transversely cut into 6 slices with a 2 mm thickness, then transferred to TTC staining solution, incubated in a 37° C. incubator without light for 10 min, and taken pictures. The TTC-stained brain tissue and the remaining non-stained brain tissue were stored at −20° C.
Quantitative analysis of photos after TTC staining was performed using Image J software. […]

Data set [2] shares this test system. Kind of data set: MCAO rat cerebral ischemia model, blinded behavioral scoring 0-5 points (Example 9). It counts as in vivo, SD rats. The note with it: 3 mg/kg tail vein; for Behavioral score, mean value / Behavioral score: 22-24 h after suturation, scale 0-5 points; for Behavioral score, mean value: mean of 6 rats. The protocol: as §1, §2, §3, §4, §5, §6
The behavioral observation and scoring were performed on each animal 22-24 h after the suturation.

Data set [3] concerns suture-embolized MCAO model, rat cerebral ischemic stroke. Kind of data set: Dose-effect experiment, Bederson score (Example 10). The note with it: 3 mg/kg group; 1 hour after ischemia, i.e. before dosing (model check); mean ± SD. It counts as in vivo, Sprague-Dawley (SD) rats. The procedure:
Measurement time: 1 hour after ischemia on the day of modeling;
Animals measured: all the animals survived in surgery;
Measurement method: the Bederson scoring standard was used to score animals.

A short description of data set [4]: Dose-effect experiment, body weight of MCAO model animals (Example 10). The note with it: mean ± SD.
Protocol: The establishment of rat model: the rats were placed in an anesthesia induction box filled with 3.0% isoflurane for anesthesia induction. Anesthesia-induced animals were transferred to the operating table, and anesthesia was maintained with 2.0%˜2.5% isoflurane at 200 mL/min using a small-animal gas anesthesia machine, and the eyelid reflex and pain response of the rats were observed. The surgery can be started only after the eyelid reflex response and the pain response on limbs and tail disappeared. • A. Isolating and exposing blood vessels: the skin of the surgical area was shaved, and the rat was placed under a surgical microscope. The skin of the rat was cut along the midline with ophthalmic scissors, with a cut of about 2 cm length. […]
Animals measured: all the surviving experimental animals planned to be measured;
Measurement time: the body weight was measured at least twice during the accommodation, and each batch of rats were weighed once on the day before the surgery and on the day of dissection to calculate the amount of drug administered and the anesthetic applied; the body weight was measured twice a week after the surgery.
Data set [5] deals with suture-embolized MCAO model, rat cerebral ischemic stroke. Kind of data set: Dose-effect experiment, rat neurological function score NSS (Example 10). The settings on record: mean ± SD. It counts as in vivo, Sprague-Dawley (SD) rats. The procedure:
Measurement time: 24 hours before and after modeling;
Measurement method: a motor function test, sensory test, balance test, and reflex and abnormal behavior test were performed on animals, according to the rat neurological function score scale (NS S) for details.

Data set [6] deals with experimental cerebral ischemia-reperfusion in animals. The note with it: cynomolgus monkeys, preclinical ischemic stroke model; cited from earlier work.
Data set [7] relates to patients with acute ischemic stroke (AIS) undergoing endovascular thrombectomy. The settings on record: 2.6 mg/kg intravenous injection; cited from earlier work.
The test system of data set [8] is suture-embolized MCAO model, rat cerebral ischemic stroke. Kind of data set: Dose-effect experiment, suture-embolized MCAO ischemia-reperfusion, TTC infarct size and inhibition rate (Example 10). It counts as in vivo, Sprague-Dawley (SD) rats.
Protocol: The establishment of rat model: the rats were placed in an anesthesia induction box filled with 3.0% isoflurane for anesthesia induction. Anesthesia-induced animals were transferred to the operating table, and anesthesia was maintained with 2.0%˜2.5% isoflurane at 200 mL/min using a small-animal gas anesthesia machine, and the eyelid reflex and pain response of the rats were observed. The surgery can be started only after the eyelid reflex response and the pain response on limbs and tail disappeared. • A. Isolating and exposing blood vessels: the skin of the surgical area was shaved, and the rat was placed under a surgical microscope. The skin of the rat was cut along the midline with ophthalmic scissors, with a cut of about 2 cm length. Through the right neck of the rat, the muscle tissue of the right neck was bluntly isolated and opened with a microforcep to expose the right common carotid artery (CCA), and then isolated upward along the common carotid artery to further expose the external carotid artery (ECA) and internal carotid artery (ICA); • B. The ECA was ligated and the ICA was temporarily clamped; the proximal end and distal end of CCA were threaded separately, the distal end was tied tightly and the proximal end was tied with a loose knot, and a small incision was made between the two threads; • C. Inserting the suture emboli: A No. 4-0 suture emboli was inserted through the incision of CCA, pushed slowly and gently into the internal carotid artery, and stopped at the artery clamp of ICA, the pre-set thread was tied tightly (to avoid severe bleeding when pushing the suture emboli), then the artery clamp that blocked the blood flow of ICA was removed, and the suture emboli was immediately pushed into ICA until entering into the cranium. At the moment, one should be careful not to insert the suture emboli into the pterygopalatine artery, which is another branch of the internal carotid artery (the pterygopalatine artery is one of the extra-cranial branches of ICA; when the suture emboli entered the pterygopalatine artery to a depth of about 10 mm, it cannot be inserted further, at the moment one should slightly draw back the suture emboli, adjust the direction, and insert again); • D. Fixing the suture emboli and suturing the incision: if one felt slight resistance when the suture emboli was inserted about 18 mm depth from the bifurcation of the common carotid artery, it means that the tip of the suture emboli has entered into the cerebral anterior artery (ACA), and the side wall of the suture emboli has blocked the opening of the middle cerebral artery; at the moment, the insertion was terminated and the time was recorded. […]
[9] abbreviates: 3 mg/kg group, D 0 = 1 day before surgery (baseline).
[10] abbreviates: 3 mg/kg i.v., D 2 = 1 day after surgery.

“And” between values parts separate entries of the source, which are not always exact repeats. Identical values can stand only once. Where no end group is shown, it is not given here. [ ]: non-standard residue; d: D form. βAla = NCCC(=O)O

Take Gly-[βAla]-His [S9]: in data set [1] (3 mg/kg tail vein), the “Infarct volume, statistical comparison with S1 (NA1)” value was “not statistically different from S1”. Also, the “Cerebral infarction volume (TTC quantification), mean value” in data set [1] is 0.197±0.059 and 0.197. The “Cerebral infarction volume (TTC quantification)” value in data set [1] (rat No. 1) was found to be 0.239; in data set [1] (rat No. 2), 0.206; in data set [1] (rat No. 3) it was 0.208; in data set [1] (rat No. 4), 0.263; in data set [1] (rat No. 5), 0.171; in data set [1] (rat No. 6), 0.095. Besides, in data set [2], the “Behavioral score, statistical comparison with S1 (NA1)” value was “not statistically different from S1”. Further, the “Behavioral score, mean value” in data set [2] was found to be 2.0; in data set [2] (listed as Gly-beta-Ala-His) it was 2.0±0.9. Moreover, the Behavioral score is on record as 3 in data set [2] (rat No. 1); 3 in data set [2] (rat No. 2); 2 in data set [2] (rat No. 3); 2 in data set [2] (rat No. 4); 1 in data set [2] (rat No. 5); 1 in data set [2] (rat No. 6).
Take YGRKKRRQRRRKLSSIESDV [S1, Nerinetide]: the Bederson in data set [3] is on record as 3 ± 0. In addition, the “Weight D 0” value in data set [4] (setting [9]) was found to be 251.91 ± 8.69 g. Also, the “Weight D 2” value in data set [4] (setting [10]) amounted to 203.7 ± 10.94 g. Further, the “Cerebral infarction volume (TTC quantification), mean value” in data set [1] turned out to be 0.157. Further, the “Cerebral infarction volume (TTC quantification)” value in data set [1] (rat No. 1) is given as 0.187; in data set [1] (rat No. 2), 0.218; in data set [1] (rat No. 3), 0.153; in data set [1] (rat No. 4), 0.145; in data set [1] (rat No. 5), 0.107; in data set [1] (rat No. 6), 0.134. Also, the “NSS score D 0” value in data set [5] (setting [9]) is given as 0 ± 0. The “NSS score D 2” value in data set [5] (setting [10]) was determined as 8.00±0.76. The “Effect on infarct size of experimental cerebral ischemia-reperfusion” value in data set [6] is recorded as “reduce the infarct size”. Besides, the “Effect on patient's prognosis” value in data set [7] is “improved patient's prognosis”. Further, the entries for the “Behavioral score, mean value” in data set [2] and in data set [2] (listed as NA1) were 2.0 and 2.0±0.6, respectively. Besides, the Behavioral score in data set [2] (rat No. 1) worked out at 2; in data set [2] (rat No. 2), 2; in data set [2] (rat No. 3) it was 2; in data set [2] (rat No. 4), 2; in data set [2] (rat No. 5), 1; in data set [2] (rat No. 6), 3. Moreover, in data set [8] (3 mg/kg i.v. once within 10 min after reperfusion, 24 h after treatment, mean ± SD), the Infarct weight came out at 0.24 ± 0.02 g. Also, the Infarct size in data set [8] (3 mg/kg i.v. once within 10 min after reperfusion, TTC 24 h after treatment, infarct weight / whole brain weight, mean ± SD) is 16.74±3.14%. The “Inhibition rate of cerebral infarction” value in data set [8] (3 mg/kg i.v., calculated from infarct size vs model control group) is given as 33%.

Values taken from patent publication US20240002435A1, “SYNTHETIC PEPTIDE AND APPLICATION THEREOF” (Wuhan Innerse Pharmaceutical Inc., priority 2021, published 2024).
